For series [1], the system named is saccharase/isomaltase (SI) enzyme complex. Put plainly: Cleavability by small-intestine α-glucosidases, SI complex. The settings on record: 2 hours, 37° C.
Protocol: The saccharase/isomaltase (SI) and glucoamylase/-maltase (GM) enzyme complexes were isolated from porcine small intestine by the method of H. Heymann (Dissertation, Hannover, 1991).
• triethanolamine (TRA) buffer, 0.1 M, pH 7.0 • saccharide, 1% strength solution in TRA buffer • maltose or sucrose, as control substances, 1% strength in TRA buffer • mucosa enzyme, dissolved in TRA buffer Reaction Mixture:
1.2 ml of the carbohydrate solution, at a controlled temperature of 37° C., were admixed with 0.7 U of the saccharase/isomaltose or glucoamylase/maltase enzyme complex, respectively, at t=0. Mixing was followed by incubation at 37° C. The reaction was stopped after 2 hours by heating at 95° C. for 15 minutes. The monosaccharides formed and also the test substances used were assayed by HPAEC.
The test system of series [2] is glucoamylase/maltase (GM) enzyme complex. Put plainly: Cleavability by small-intestine α-glucosidases, GM complex. The class given is in vitro ADME, porcine. The settings on record: 2 hours, 37° C. On the procedure:
Mixing was followed by incubation at 37° C.

The nature of series [3]: Stability in the stomach: rate of hydrolysis at pH 2.0. The class given is physicochemical. The settings on record: pH 2.0 (0.01 M HCl), 37° C., 1% solution.
Protocol: The stability of a substance on passage through the stomach can be ascertained by determining the rate of hydrolysis at a pH of 2.0, using sucrose and 1-kestose as controls.
Samples were taken from the reaction mixture after 60, 120 and 180 minutes. They were analyzed by means of HPAEC techniques.
Report as hydrolysis rates in %

SMILES strings stand for the structures.

With `OC[C@H]1O[C@H](O[C@H]2[C@H](O)[C@@H](O)C(O)O[C@@H]2CO)[C@H](O)[C@@H](O)[C@@H]1O` (mixture of isomers) [Maltose, maltose], the “hydrolysis by the SI enzyme complex” value in series [1] is “virtually complete hydrolysis”. For the same molecule, the “hydrolysis by the GM enzyme complex” value in series [2] is “virtually complete hydrolysis”.

On to `OC[C@H]1O[C@@](CO)(OC[C@@]2(O[C@H]3O[C@H](CO)[C@@H](O)[C@H](O)[C@H]3O)O[C@H](CO)[C@@H](O)[C@@H]2O)[C@@H](O)[C@@H]1O` [1-Kestose, 1-kestose], for which the hydrolysis rate in series [3] (incubation time 0 min.) was determined as 0%; in series [3] (incubation time 60 min.), 11%; in series [3] (incubation time 120 min.), 25%; in series [3] (incubation time 180 min.), 36%.

With `OC[C@H]1O[C@@](CO)(O[C@H]2O[C@H](CO)[C@@H](O)[C@H](O)[C@H]2O)[C@@H](O)[C@@H]1O` [Sucrose, sucrose], the “hydrolysis by the SI enzyme complex” value in series [1] is reported as “virtually complete hydrolysis”. Moreover, the hydrolysis rate in series [3] (incubation time 0 min.) was 0%; in series [3] (incubation time 60 min.) it was 2%; in series [3] (incubation time 120 min.), 5%; in series [3] (incubation time 180 min.), 8%.
